# According to US10358455B2, “Arene ruthenium complex, preparation method and utilization thereof” (Guangdong Pharmaceutical University, priority 2017, dated 2019):
# Read-outs that look alike come from different tables or passages of the source.
# Tests used:
# [1] = system: A549 lung adenocarcinoma cancer cells; test: MTT assay on A549 lung adenocarcinoma cells; type: cell-based; conditions: 72 h, 5-80 μM, read-out: The inhibitory effect IC50 on A549 lung adenocarcinoma cancer cells
# Procedure: The Antiproliferative Activities of Arene Ruthenium (II) Complexes Against A549 Lung Adenocarcinoma Cancer Cells
# (§1) The antiproliferative effects of arene ruthenium (II) complex against A549 lung adenocarcinoma cells were evaluated by MTT assay. Discarded the medium of the A549 lung adenocarcinoma cells in exponential growth phase, washing the cells twice with phosphate-buffered saline (PBS), dissociating into single cells by digesting with 1 mL trypsin, counting the cells. Adding fresh medium to dilute cell population to 1.5×10^4 cells/mL, inoculating into 96-well tissue culture plates (3×10^3 cells per well) with 200 μL/well in 6 wells of each group, repeating twice, and then culturing at 37° C. in 5% CO2 saturated humidity incubator for 16 h. After adherent cells are apparent, removing the supernatant carefully and adding DMEM media. Meanwhile, the cells were incubated with different concentrations of arene ruthenium (II) complexes with a final concentration of 5, 10, 20, 40 and 80 μM respectively and maintain the total volume at 200 μL/well. Thereafter, the cells were cultured for 72 h. At the end of incubation, 20 μL/well of MTT solution (5 mg/mL) was added and incubated at 37° C. for 4 h. Removing the supernatant carefully and replaced with 150 μL/well of DMSO and oscillated for 10 min to ensure complete dissolution of the formazan crystallization. The absorbance values were measured at 490 nm using a microplate reader. Cell viability was calculated according to the following formula: Cell viability (%)=A490 nm (cells in experimental group)/A490 nm (cells in control group)×100%
# According to the values of cell viability, calculating the inhibitory activities (IC50) of the target complex against A549 lung adenocarcinoma cancer cells.
# [2] = system: rat glioma C6 cancer cells; test: MTT assay on rat glioma C6 cells; type: cell-based; conditions: 5-80 μM, read-out: The inhibitory effect IC50 on rat glioma C6 cancer cells
# Procedure: The Antiproliferative Activities of Arene Ruthenium (II) Complexes Against Rat Glioma C6 Cancer Cells.
# as §1, with “rat glioma C6” for “A549 lung adenocarcinoma”, “Discarding” for “Discarded”, “respectively,” for “respectively”, “incubated” for “incubated at 37° C.”
# According to the values of cell viability, calculating the inhibitory activities (IC50) of the target complex against rat glioma C6 cells.
# [3] = system: MDA-MB-231 breast cancer cells; test: MTT assay on MDA-MB-231 breast cancer cells; type: cell-based; conditions: 72 h, 5-80 μM, read-out: The inhibitory effect IC50 on MDA-MB-231 breast cancer cells
# Procedure: The Anti-Invasion Activities of Arene Ruthenium (II) Complexes Against MDA-MB-231 Breast Cancer Cells.
# The anti-invasion activities of arene ruthenium (II) complexes against MDA-MB-231 breast cancer cells was evaluated by MTT assay. Discarding the medium of the MDA-MB-231 breast cancer cells in exponential growth phase, washing the cells twice with phosphate-buffered saline (PBS), dissociating into single cells by digesting with 1 mL trypsin, counting the cells. Adding fresh medium to dilute cell population to 1.5×10^4 cells/mL, inoculating into 96-well tissue culture plates (3×10^3 cells per well) with 200 μL/well in 6 wells of each group, repeating twice, and then culturing at 37° C. in 5% CO2 saturated humidity incubator for 16 h. After adherent cells are apparent, removing the supernatant carefully and adding DMEM media. Meanwhile, the cells were incubated with different concentrations of arene ruthenium (II) complexes with a final concentration of 5, 10, 20, 40 and 80 μM respectively and maintain the total volume at 200 μL/well. Thereafter, the cells were cultured for 72 h. At the end of incubation, 20 μL/well of MTT solution (5 mg/mL) was added and incubated for 4 h. Removing the supernatant carefully and replaced with 150 μL/well of DMSO and oscillated for 10 mins to ensure complete dissolution of the formazan crystallization. The absorbance values were measured at 490 nm using a microplate reader. Cell viability was calculated according to the following formula: Cell viability (%)=A490 nm (cells in experimental group)/A490 nm (cells in control group)×100%
# According to the values of cell viability, calculating the inhibitory activities (IC50) of the target complex against MDA-MB-231 cells.
# [4] = system: nasopharyngeal carcinoma CNE-1 cancer cells; test: MTT assay on nasopharyngeal carcinoma CNE-1 cells; type: cell-based; conditions: 72 h, 5-80 μM, read-out: The inhibitory effect IC50 on CNE-1 cancer cells
# Procedure: The Antiproliferative Activities of Arene Ruthenium (II) Complexes Against Nasopharyngeal Carcinoma CNE-1 Cancer Cells.
# as §1, with “nasopharyngeal carcinoma CNE-1” for “A549 lung adenocarcinoma”, “Discarding” for “Discarded”
# According to the values of cell viability, calculating the inhibitory activities (IC50) of the target complex against CNE-1 cancer cells.
# [5] = system: human esophageal carcinoma EC-1 cells; test: MTT assay on human esophageal carcinoma EC-1 cells; type: cell-based; conditions: 72 h, 5-80 μM, read-out: The inhibitory effect IC50 on human esophageal carcinoma EC-1 cells
# Procedure: The Antiproliferative Activities of Arene Ruthenium (II) Complexes Against Human Esophageal Carcinoma EC-1 Cells.
# The antiproliferative effects of arene ruthenium (II) complex against human esophageal carcinoma EC-1 cells were evaluated by MTT assay. Discarding the medium of human esophageal carcinoma EC-1 cells in exponential growth phase, washing the cells twice with phosphate-buffered saline (PBS), dissociating into single cells by digesting with 1 mL trypsin, counting the cells. Adding fresh medium to dilute cell population to 1.5×10^4 cells/mL, inoculating into 96-well tissue culture plates (3×10^3 cells per well) with 200 µL/well in 6 wells of each group, repeating twice, and then culturing at 37° C. in 5% CO2 saturated humidity incubator for 16 h. After adherent cells are apparent, removing the supernatant carefully and adding DMEM media. Meanwhile, the cells were incubated with different concentrations of arene ruthenium (II) complexes with a final concentration of 5, 10, 20, 40 and 80 μM respectively and maintain the total volume at 200 μL/well. Thereafter, the cells were cultured for 72 h. At the end of incubation, 20 μL/well of MTT solution (5 mg/mL) was added and incubated at 37° C. for 4 h. Removing the supernatant carefully and replaced with 150 μL/well of DMSO and oscillated for 10 min to ensure complete dissolution of the formazan crystallization. The absorbance values were measured at 490 nm using a microplate reader. Cell viability was calculated according to the following formula: Cell viability (%)=A490 nm (cells in experimental group)/A490 nm (cells in control group)×100%
# According to the values of cell viability, calculating the inhibitory activities (IC50) of the target complex against human esophageal carcinoma EC-1 cells.
# [6] = system: human epidermal HaCaT cells; test: MTT assay on human epidermal HaCaT cells; type: cell-based; conditions: 72 h, 5-80 μM, normal epidermal cells, read-out: The inhibitory effect IC50 on human epidermal HaCaT cells
# Procedure: The Antiproliferative Activities of Arene Ruthenium (II) Complexes Against Human Epidermal HaCaT Cells.
# The antiproliferative effects of arene ruthenium (II) complex against human epidermal HaCaT cells were evaluated by MTT assay. Discarding the medium of human epidermal HaCaT cells in exponential growth phase and washing the cells twice with phosphate-buffered saline (PBS), dissociating into single cells by digesting with 1 mL trypsin. Adding fresh medium to dilute cell population to 1.5×10^4 cells/mL, inoculating into 96-well tissue culture plates (3×10^3 cells per well) with 200 μL/well in 6 wells of each group, repeating twice, and then culturing at 37° C. in 5% CO2 saturated humidity incubator for 16 h. After adherent cells are apparent, carefully removing the supernatant and adding DMEM media. Meanwhile, the cells were incubated with different concentrations of arene ruthenium (II) complexes with a final concentration of 5, 10, 20, 40 and 80 μM respectively and maintain the total volume at 200 µL/well. Thereafter, the cells were cultured for 72 h. At the end of incubation, 20 μL/well of MTT solution (5 mg/mL) was added and incubated at 37° C. for 4 h. Removing the supernatant carefully and replaced with 150 μL/well of DMSO and oscillated for 10 min to ensure complete dissolution of the formazan crystallization. The absorbance values were measured at 490 nm using a microplate reader. Cell viability was calculated according to the following formula: Cell viability (%)=A490 nm (cells in experimental group)/A490 nm (cells in control group)×100%
# According to the values of cell viability, calculating the inhibitory activities (IC50) of the target complex against human epidermal HaCaT cells.
# [7] = system: nasopharyngeal carcinoma cells; conditions: read-out: anti-proliferative activity IC50, nasopharyngeal carcinoma cells; cited from earlier work
# lung cancer cells = conditions: read-out: anti-proliferative activity IC50, lung cancer cells; cited from earlier work
# breast cancer cells = conditions: read-out: anti-proliferative activity IC50, breast cancer cells; cited from earlier work
# ovarian cancer cells = conditions: read-out: anti-proliferative activity IC50, ovarian cancer cells; cited from earlier work
# MDA-MB-231 cells = test: Cell cycle analysis by flow cytometry (PI staining); type: cell-based; conditions: FIG. 75
# Procedure: After incubating with arene ruthenium (II) complex RAP07, the cell cycle arrest of MDA-MB-231 cells was analyzed with an Epics XL-MCL flow cytometer. The general method is: Trypsinizing the cells with trypsin, washing the cells with phosphate-buffered saline (PBS), and fixing the cells with 70% ethanol overnight at −20° C. Washing the fixed cells with phosphate-buffered saline (PBS) and staining with propidium iodide (PI) for 4 hours in the dark. Finally, the cell cycle arrest was analyzed using an Epics XL-MCL flow cytometer, cell cycle distribution was analyzed using MultiCycle software (Phoenix Flow Systems, San Diego, Calif.). The number of apoptotic cells with sub-diploid DNA were determined by measuring the […] in the cell cycle, every 10000 cells of each sample were recorded.
Compound,IC50 ([2]; 72 h) [µM],IC50 [3] [µM],IC50 [4] [µM],IC50 [5] [µM],IC50 [6] [µM],other results
[(η^6-p-cymene)Ru(m-ClPIP)Cl]Cl [RAP052],–,–,–,–,–,IC50 [1]: 36.6 ± 0.67 µM
[(η^6-p-cymene)Ru(p-NO2PIP)Cl]Cl [RAP143],2.4 ± 0.05,–,–,–,–,IC50 [1]: 11.8 ± 0.9 µM
"N.N.[Cl][Pt][Cl] [cis-platin, reference compound]",–,17.8 ± 0.9,19.1 ± 0.5,9.4 ± 0.21,17.1 ± 0.8,IC50 [1]: 93.1 ± 0.9 µM
"Cn1nnc2c(C(N)=O)ncn2c1=O [Temozolomide, reference compound]",–,–,–,–,–,"IC50 ([2]; Rattus norvegicus, C6, 72 h): 259 ± 15.5 µM"
[(η^6-p-cymene)Ru(o-BrPIP)Cl]Cl [RAP061],–,–,–,–,> 100,–
[(η^6-p-cymene)Ru(p-IPIP)Cl]Cl [RAP073],–,3.2 ± 0.1,3.3 ± 0.07,–,–,–
[(η^6-p-cymene)Ru(C6H5-BzTSC)Cl]Cl,–,–,–,–,–,IC50 [7]: 20 µM; IC50 (lung cancer cells): 31 µM; IC50 (breast cancer cells): 10 µM; IC50 (ovarian cancer cells): 34 µM
[(η^6-p-cymene)Ru(p-BrPIP)Cl]Cl [RAP07],5.6 ± 0.2,8.33 ± 0.6,–,18.1 ± 1.7,–,Cell cycle arrest of MDA-MB-231 cells (MDA-MB-231 cells): Induces the S-Phase Arrest

# Now from value to compound, other results behind:
IC50 ([2]; 72 h) [µM],IC50 [3] [µM],IC50 [4] [µM],IC50 [5] [µM],Compound,IC50 [6] [µM],other results
4.5 ± 0.07,6.27 ± 0.29,–,6.9 ± 0.2,[(η^6-p-cymene)Ru(p-CF3PIP)Cl]Cl [RAP083],> 100,–
–,9.6 ± 0.3,–,18.4 ± 11.7,[(η^6-p-cymene)Ru(p-CH3PIP)Cl]Cl [RAP273],–,–
5.6 ± 0.11,6.4 ± 0.16,11.9 ± 0.73,–,[(η^6-p-cymene)Ru(p-N(CH3)2PIP)Cl]Cl [RAP093],> 100,–
1.2 ± 0.3,–,–,18.2 ± 0.5,[(η^6-p-cymene)Ru(p-FPIP)Cl]Cl [RAP04],–,–
–,–,17.4 ± 0.47,–,[(η^6-p-cymene)Ru(o-OCH3PIP)Cl]Cl [RAP201],–,–
5.4 ± 0.17,9.2 ± 0.3,15.7 ± 0.11,–,[(η^6-p-cymene)Ru(m-BrPIP)Cl]Cl [RAP062],37.3 ± 1.99,IC50 [1]: 6.59 ± 2.26 µM
